According to patent US20170128518A1, “METHODS AND MATERIALS FOR IDENTIFYING AND TREATING MAMMALS RESISTANT TO PROTEASOME INHIBITOR TREATMENTS” (Mayo Foundation for Medical Education and Research, priority 2014, published 2017):

System: WM cell lines (BCWM.1, BCWM.1/BR, RPCI-WM1, RPCI-WM/BR)
Assay: NanoString nCounter gene expression profiling
Assay type: cell-based, human
Details: 50 nmol/l (WT) or 100 nmol/l (BR), 24 hours
Method: FIGS. 14A and 14B are diagrams depicting genes altered in b-AP15 treated WM cells. BCWM.1 and RPCI-WM1 were treated with b-AP15 (50 nmol/l), and BR clones were treated with 100 nmol/1 of the DUB inhibitor for 24 hours, followed by collection of RNA for profiling using the NanoString nCounter assay. FIG. 14A is an intersect analysis in which treated (Tx) cell lines were first compared to their untreated counterparts and then against one another to delineate which genes were altered in the same orientation across all four cell lines tested. FIG. 14B is a diagram of an IPA network analysis, depicting the relationship between the 36 genes and illustrating the interaction and relative expression of these genes. The darkness of the node color denotes the degree of differential gene expression as compared to baseline.
Total RNA from four WM cell lines (BCWM.1, BCWM.1/BR, RPCI-WM1 and RPCI-WM/BR) were prepared using Exiqon miRCURY RNA isolation kit (Exiqon, Woburn, Mass. USA) following the manufacturer's instructions. RNA samples were quantitated using a ND-1000 spectrophotometer (NanoDrop) and evaluated for degradation using a 2100 Bioanalyzer (Agilent Technologies, Santa Clara, Calif., USA).
The NanoString nCounter (NanoString, Seattle, Wash.) assay was used for mRNA quantification and expression in WM cells that were treated with b-AP15, as described elsewhere (Geiss et al., Nat Biotechnol 26:317-25, 2008; and Paulus et al., Brit J Haematol 164:352-65, 2014). Briefly, a library is constructed with two sequence-specific probes for the gene of interest. Unique pairs of 3′ reporter and 5′ capture probes are developed to distinguish transcripts for the gene of interest using a color-based barcoding system. The capture probe contains a base pair sequence that is complementary to the target mRNA and linked to a biotin affinity tag, which binds the mRNA of interest. The reporter probe also is also designed to be complementary to the target mRNA, contains a base sequence that is linked to an RNA-based color-coded molecular tag that provides a signal for detection. Using this method, a distinct color code is digitally generated for each gene of interest. In our experiments, all probes were mixed together with total RNA (100 ng from each sample) in a single hybridization reaction for 12 hours at 65° C. in solution. Using the nCounter Prep Station, each probe-mRNA complex was captured post-hybridization onto a streptavidin coated surface, aligned and imaged. Each sample was scanned for 600 FOV on the nCounter Digital Analyzer. As each target mRNA is designated by its unique color code, the level of expression was quantified by counting the number of codes for each molecule. Subsequent normalization of the raw data to internal controls provided by the manufacturer was performed using the nSolver Analysis software v1.1. Data was extracted using the nCounter RCC Collector; based on the positive and negative controls, a cutoff of 20 was used to filter out transcript signals that registered at levels of background noise.
Statistical interpretation and data visualization (heat map) was conducted using Multi Experiment Viewer (MeV) from The Institute for Genomic Research (TIGR) (Saeed et al., Methods Enzymol 411:134-193, 2006; and Saeed et al., Biotechniques 34:374-378, 2003). Using the normalized data that was exported from nCounter RCC Collector, an average of mRNA transcript probe values was taken for each cell line (three biological replicates each) representing controls (untreated) and drug-treated samples, a tab-delimited text file was generated in Microsoft Excel and uploaded into MeV. Genes were log-2 transformed and mean centered. Bi-dimensional, average-linkage, unsupervised hierarchical clustering analysis was applied to find the relationships between samples and genes using the Pearson correlation coefficient.

C=CC(=O)N1C/C(=C\c2ccc([N+](=O)[O-])cc2)C(=O)/C(=C/c2ccc([N+](=O)[O-])cc2)C1 [b-AP15]
Average fold change, AKT2: −2.812 fold | Average fold change, BIRC5: −2.209 fold | Average fold change, BMI1: −3.09 fold | Average fold change, CASP2: −3.679 fold | Average fold change, CCNA2: −5.841 fold | Average fold change, CCND2: −3 fold | Average fold change, CCNE1: −4.193 fold | Average fold change, CDC2: −4.668 fold | Average fold change, CDC25B: −3.629 fold | Average fold change, CDK4: −2.59 fold | Average fold change, CSK: −3.871 fold | Average fold change, E2F1: −3.634 fold | Average fold change, EGR1: 2.27 fold | Average fold change, ETV6: −4.643 fold | Average fold change, FOS: 5.569 fold | Average fold change, HDAC1: −2.887 fold | Average fold change, HRAS: −3.277 fold | Average fold change, IL8: 14.77 fold | Average fold change, JUN: 5.625 fold | Average fold change, MSH2: −4.367 fold | Average fold change, MSH6: −4.242 fold | Average fold change, MYB: −9.647 fold | Average fold change, MYBL2: −2.794 fold | Average fold change, MYC: −3.287 fold | Average fold change, PCNA: −3.166 fold | Average fold change, RAD54L: −3.029 fold | Average fold change, SERPINE1: 5.734 fold | Average fold change, SPI1: −2.522 fold | Average fold change, SYK: −3.84 fold | Average fold change, TFDP1: −4.261 fold | Average fold change, TFRC: −3.192 fold | Average fold change, TOP2A: −6.321 fold | Average fold change, TUBB: −3.724 fold | Average fold change, TYMS: −3.966 fold | Average fold change, XPC: −3.045 fold | Average fold change, XRCC5: −2.834 fold
